Among the test systems are IGROV1 ovarian; SNB-75 CNS; SF-268 CNS; RXF 393 renal; UO-31 renal; HL-60(TB) leukemia; COLO 205 colon; MALME-3M melanoma; SF-295 CNS; M14 melanoma.
Common to all, as to assay: NCI anticancer screen, dose series, 48 h

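Five compound concentrations were applied to cells in 96-well plates for 48 hours; endpoints were derived by simple linear interpolation of the resulting dose-response curve. GI50 = concentration required for 50% inhibition of growth. TGI is the concentration that stops growth completely.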 A value given as a limit tells only on which side of the number the result lay.

`O=C1OC(c2ccc(O)c(-c3ccccc3)c2)(c2ccc(O)c(-c3ccccc3)c2)c2c(Cl)c(Cl)c(Cl)c(Cl)c21`: the TGI with IGROV1 ovarian is over 100 µM; with SNB-75 CNS, over 100 µM; in the assay on SF-268 CNS it was over 100 µM; in the assay on RXF 393 renal it was over 100 µM; in the assay with UO-31 renal, over 100 µM; in the assay with HL-60(TB) leukemia, 12.3 µM. For the same compound, the TGI in the assay on COLO 205 colon, in the assay with MALME-3M melanoma, in the assay with SF-295 CNS and with M14 melanoma was over 100 µM throughout.

Regarding `O=C(O)C1C2CC3C(OC(=O)C31)C2Br` (stereo not given), the TGI in the assay on IGROV1 ovarian was over 100 µM; in the assay with SNB-75 CNS, over 100 µM; in the assay on SF-268 CNS, over 100 µM; in the assay with RXF 393 renal it was over 100 µM; in the assay with UO-31 renal it was over 100 µM; in the assay with HL-60(TB) leukemia, over 23.4 µM. Moreover, the TGI with COLO 205 colon, in the assay on MALME-3M melanoma, with SF-295 CNS and in the assay on M14 melanoma was over 100 µM throughout.

In the case of `Cn1c(CCC#N)nc2ccc(Br)cc2c1=O`, the TGI with IGROV1 ovarian, with SNB-75 CNS, in the assay with SF-268 CNS, in the assay on RXF 393 renal, in the assay on UO-31 renal and in the assay with HL-60(TB) leukemia was over 100 µM in each case. Also, the TGI in the assay on COLO 205 colon, in the assay with MALME-3M melanoma, in the assay with SF-295 CNS and in the assay with M14 melanoma was over 100 µM in each case.

As to `COCCOC(=O)C1=C(C)NC2=C(C(=O)CC(c3ccccc3OC)C2)C1c1cccc(O)c1` (stereo not given), the GI50 was 9.54 µM in the assay with IGROV1 ovarian; 2.43 µM with SNB-75 CNS; 15.8 µM in the assay on SF-268 CNS; 14.1 µM in the assay on RXF 393 renal; 3.62 µM in the assay with UO-31 renal; 3.2 µM with HL-60(TB) leukemia. For the same compound, the GI50 is 8.55 µM in the assay with COLO 205 colon, 13.9 µM in the assay with MALME-3M melanoma, 11.5 µM in the assay on SF-295 CNS and 11.8 µM in the assay with M14 melanoma. Besides, the TGI with IGROV1 ovarian came out at 52.4 µM; in the assay on SNB-75 CNS, 30.9 µM; in the assay on SF-268 CNS, 53.4 µM; in the assay with RXF 393 renal, 36.4 µM; with UO-31 renal, 45.8 µM; in the assay with HL-60(TB) leukemia, 36 µM. In addition, the TGI in the assay on COLO 205 colon is 24.8 µM; in the assay with MALME-3M melanoma it was 47.6 µM; in the assay with SF-295 CNS it was 35.2 µM; in the assay with M14 melanoma, 39.5 µM.

Consider `CCCNCc1nc2ccc(Br)cc2c(=O)n1CCC`, for which the TGI in the assay with IGROV1 ovarian was determined as 29.7 µM; with SNB-75 CNS, 31.7 µM; with SF-268 CNS it was 26.9 µM; in the assay on RXF 393 renal it was 29.1 µM; with UO-31 renal it was 29.8 µM; in the assay with HL-60(TB) leukemia, 30.8 µM. In addition, the TGI is 27.7 µM in the assay on COLO 205 colon, 26.4 µM in the assay with MALME-3M melanoma, 30.6 µM in the assay on SF-295 CNS and 27.4 µM in the assay on M14 melanoma.

Consider `O=C1C=C(Nc2ccccc2C(=O)CC(=O)C(=O)Nc2cccc(C(F)(F)F)c2)c2ccccc2C1=O`, for which the TGI in the assay with IGROV1 ovarian was over 100 µM; in the assay with SNB-75 CNS it was over 96.9 µM; with SF-268 CNS, 73.3 µM; in the assay with RXF 393 renal, 93.3 µM; in the assay with UO-31 renal it was over 80.1 µM; with HL-60(TB) leukemia, 24.2 µM. For the same compound, the TGI in the assay on COLO 205 colon was over 100 µM; in the assay on MALME-3M melanoma it was 28.7 µM; in the assay on SF-295 CNS, 53.7 µM; in the assay on M14 melanoma it was 31.7 µM.

As to `Cc1ccccc1C(=O)Oc1ccc(Oc2ccccc2)cc1`, the TGI with IGROV1 ovarian, in the assay on SNB-75 CNS, with SF-268 CNS, with RXF 393 renal, in the assay with UO-31 renal and with HL-60(TB) leukemia was over 100 µM in each case. Moreover, the TGI in the assay on COLO 205 colon, in the assay with MALME-3M melanoma, in the assay with SF-295 CNS and in the assay on M14 melanoma was over 100 µM throughout.

As to `COC(CCP(=O)(c1ccccc1)c1ccccc1)(C(=O)c1ccccc1)c1ccccc1` (stereo not given), the GI50 in the assay on IGROV1 ovarian was 8.06 µM; in the assay with SNB-75 CNS, 5.76 µM; in the assay on SF-268 CNS, 10.2 µM; in the assay with RXF 393 renal it was 0.213 µM; in the assay with UO-31 renal, 2.46 µM; with HL-60(TB) leukemia it was 2.29 µM. The GI50 with COLO 205 colon was 1.64 µM; in the assay on MALME-3M melanoma it was 2.78 µM; in the assay with SF-295 CNS, 0.135 µM; in the assay with M14 melanoma, 3.5 µM. Also, the TGI with IGROV1 ovarian is 25.4 µM; in the assay with SNB-75 CNS it was 22 µM; in the assay on SF-268 CNS, 21.9 µM; in the assay with RXF 393 renal, 0.917 µM; with UO-31 renal it was 16.9 µM; in the assay on HL-60(TB) leukemia, over 100 µM. Also, the TGI amounted to 3.82 µM in the assay with COLO 205 colon, 15.4 µM in the assay on MALME-3M melanoma, 1.49 µM in the assay on SF-295 CNS and 15.3 µM in the assay on M14 melanoma.

For the compound `C(=C1c2ccccc2-c2ccccc21)c1ccccn1`, the GI50 was 4.89 µM in the assay on IGROV1 ovarian; 16 µM in the assay with SNB-75 CNS; 12.4 µM with SF-268 CNS; 7.58 µM in the assay with RXF 393 renal; 8.64 µM in the assay with UO-31 renal; 4.52 µM with HL-60(TB) leukemia. For the same compound, the GI50 in the assay on COLO 205 colon is 8.56 µM; with MALME-3M melanoma it was 3.61 µM; in the assay on SF-295 CNS, 1.57 µM; with M14 melanoma it was 4.06 µM. The TGI in the assay on IGROV1 ovarian was 35.9 µM; with SNB-75 CNS, over 100 µM; with SF-268 CNS it was 57.7 µM; with RXF 393 renal, 24.1 µM; with UO-31 renal, 38.6 µM; in the assay with HL-60(TB) leukemia it was 38.5 µM. Further, the TGI with COLO 205 colon is 29.5 µM; with MALME-3M melanoma, 27 µM; in the assay with SF-295 CNS, 5.97 µM; in the assay with M14 melanoma it was 18.2 µM.

As for `Cn1c(=O)cc2c3c(c(NCCCO)ccc31)C(=O)c1ccccc1-2`, the GI50 was 4.98 µM in the assay on IGROV1 ovarian; 4.36 µM in the assay with SNB-75 CNS; 6.75 µM in the assay on SF-268 CNS; 8.64 µM in the assay on RXF 393 renal; 1.09 µM in the assay with UO-31 renal; 2.98 µM in the assay on HL-60(TB) leukemia. Further, the GI50 was 3.86 µM with COLO 205 colon, 2.12 µM in the assay on MALME-3M melanoma, 1.76 µM in the assay on SF-295 CNS and 3.13 µM with M14 melanoma. For the same compound, the TGI in the assay with IGROV1 ovarian, in the assay with SNB-75 CNS, with SF-268 CNS, with RXF 393 renal, with UO-31 renal and in the assay on HL-60(TB) leukemia was over 100 µM in each case. The TGI was over 100 µM in the assay on COLO 205 colon, 7.35 µM in the assay on MALME-3M melanoma, over 100 µM with SF-295 CNS and over 100 µM with M14 melanoma.

Source of the values: PubChem BioAssay (NCI).
